This assay relates to Streptococcus mutans (Smu) THF riboswitch aptamer (RNA, riboswitch) GGAGAGUAGAUGAUUCGCGUUAAGUGUGUGUGAAUGGGAUGUCGUCACACAACGAAGCGAGAGCGCGGUGAAUCAUUGCAUCCGCUCCA
Put plainly: ITC. Conditions: 70 mM NaCl, 2.5 mM MgCl2, 70 mM Na-HEPES pH 8.0, 1 mM DTT, 37 °C.

The KD is the equilibrium constant for the complex coming apart. Lower therefore signals a tighter complex.

Compound `Nc1nc2c(N)ncnc2[nH]1` displayed a KD of 160 ± 20 µM.

Take `Nc1ncnc2[nH]cnc12`: the KD was found to be 8 ± 1 µM. For the compound `Nc1ncc2[nH]cnc2n1`, the KD was determined as 26 ± 3 µM.

On to `Nc1nc(N)c2[nH]cnc2n1`, for which, where the note is “PK site only”, the KD was found to be 0.5 ± 0.1 µM.

The values above are taken from PMC3935398 (2014).
